This passage reports TGI and GI50 results from PubChem BioAssay (NCI).

“And” between values parts separate entries of the source, which are not always exact repeats. Equal entries are not always repeated.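 These data come from cells grown in 96-well plates and exposed to compound for 48 hours at five concentrations. GI50 marks 50% less growth. TGI: total growth inhibition.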

Test systems include SNB-78 CNS; LXFL 529 NSCLC; DMS 273 small cell lung; HOP-18 NSCLC; KM20L2 colon; M19-MEL melanoma; RXF-631 renal; XF 498 CNS; MDA-N.
Holding throughout (experiment): NCI anticancer screen, dose series, 48 h

With `COc1cc(C2c3cc4c(cc3[C@H](NC(=O)c3cccs3)C3COC(=O)[C@H]23)OCO4)cc(OC)c1OC` (stereo partly specified), the TGI is above 100 µM in the test on SNB-78 CNS; 47.2 µM with LXFL 529 NSCLC; above 100 µM with DMS 273 small cell lung; above 100 µM with HOP-18 NSCLC; 0.0396 µM in the test on KM20L2 colon.
For the molecule `Cc1ccccc1N=Cc1ccc(N(CCC#N)S(=O)(=O)c2ccccc2)cc1`, the TGI in the test on SNB-78 CNS, in the test on M19-MEL melanoma, with LXFL 529 NSCLC, in the test on RXF-631 renal, with DMS 273 small cell lung and with HOP-18 NSCLC was above 100 µM in each case. In addition, the TGI in the test on KM20L2 colon and in the test on XF 498 CNS was above 100 µM each time.
`[N-]=[N+]=Nc1ccccc1-[n+]1noc([O-])c1Br`: the TGI with M19-MEL melanoma, with LXFL 529 NSCLC, in the test on HOP-18 NSCLC and with KM20L2 colon was above 100 µM throughout.
Turning to `COc1ccc2nc3cc(Cl)ccc3c(NCCC(=O)OCC(O)C(O)C(O[C@H](C)C(=O)NC(C)C(=O)NC(CCC(N)=O)C(=O)OCc3ccccc3)C(C=O)NC(C)=O)c2c1` (stereo partly specified), the TGI was 80.8 µM in the test on SNB-78 CNS; 34.4 µM with M19-MEL melanoma; 31.2 µM in the test on LXFL 529 NSCLC; 36.9 µM in the test with RXF-631 renal; 27.6 µM in the test on DMS 273 small cell lung; 32.7 µM with KM20L2 colon. Also, in the test on XF 498 CNS, the TGI was determined as 33.5 µM.
Take `O=S(=O)(O)c1ccc(Cl)cc1.[Cd]`: in the test on MDA-N, the GI50 was 22.1 µM and the TGI was determined as 68.9 µM.
In the case of `C[C@]12CCC3[C@@H](C[C@H]4OC(=O)[C@@]35CCC(=O)C=C45)C1CCC2=O` (stereo partly specified), the TGI with M19-MEL melanoma, with LXFL 529 NSCLC, in the test with HOP-18 NSCLC and with XF 498 CNS was above 100 µM each time.
With `O=C1CSC(=S)N1c1ccc(F)cc1F`, the TGI with MDA-N is above 100 µM.
As to `COC(=O)CCC(=O)CC(=O)C(=O)Nc1ccc(F)cc1`, the TGI in the test on SNB-78 CNS, in the test on M19-MEL melanoma, in the test on LXFL 529 NSCLC, in the test on DMS 273 small cell lung, in the test with HOP-18 NSCLC and with KM20L2 colon was above 100 µM throughout.
Consider `COc1ccc(C(=O)C(c2ccc(OC)cc2)C2C(=O)Oc3ccccc32)cc1` (stereo unspecified), for which the TGI with SNB-78 CNS, with M19-MEL melanoma, in the test with LXFL 529 NSCLC, with DMS 273 small cell lung, with HOP-18 NSCLC and in the test with KM20L2 colon was above 100 µM throughout. The molecule also had a TGI in the test on XF 498 CNS above 100 µM. For the same molecule, the GI50 in the test on M19-MEL melanoma, in the test with LXFL 529 NSCLC, in the test on DMS 273 small cell lung, in the test with KM20L2 colon and in the test on XF 498 CNS was above 100 µM throughout.
`COc1ccc2c(CC(=O)O)cc(=O)oc2c1` gave a TGI with MDA-N above 100 µM.
Regarding `Cc1cc(C)nc(NS(=O)(=O)c2ccc(NC(=O)c3cccc4c(Nc5ccc(S(=O)(=O)Nc6nc(C)cc(C)n6)cc5)c5ccccc5nc34)cc2)n1`, the TGI with SNB-78 CNS was above 100 µM; in the test on M19-MEL melanoma, above 100 µM; in the test on LXFL 529 NSCLC it was 70.3 µM; in the test on RXF-631 renal, 42.6 µM; in the test on DMS 273 small cell lung it was 38.9 µM; in the test on HOP-18 NSCLC, 29.7 µM. Further, the TGI stood at 42.9 µM in the test on KM20L2 colon and 79.7 µM in the test with XF 498 CNS.
For the molecule `COc1ccc(CN2C(=O)C(Cc3cc(OC)c(OC)c(C)c3OC)N(C(=O)OC(C)C)C(=O)/C2=C/c2cc(OC)c(OC)c(C)c2OC)cc1` (stereo unspecified), the TGI with M19-MEL melanoma, in the test with LXFL 529 NSCLC, in the test on RXF-631 renal, with DMS 273 small cell lung, with HOP-18 NSCLC and in the test with KM20L2 colon was above 100 µM in each case.
`NC(=O)c1nnn(Cc2cc(Cl)c(C(=O)c3ccc(Cl)cc3)c(Cl)c2)c1N`: the GI50 in the test on SNB-78 CNS is 19 µM; with M19-MEL melanoma, 14.1 µM; in the test on DMS 273 small cell lung, 5.77 µM; with HOP-18 NSCLC it was 21.7 µM; with KM20L2 colon, 2.79 µM; with XF 498 CNS, 10.8 µM. Also, the TGI with SNB-78 CNS was > 9.09 µM and 52.2 µM; in the test with MDA-N it was above 46.9 µM; with M19-MEL melanoma, > 9.09 µM and 27.4 µM; in the test on LXFL 529 NSCLC it was > 9.09 µM and 21.1 µM; with RXF-631 renal, 53.9 µM; with DMS 273 small cell lung, > 9.09 µM and 21.2 µM. Also, the TGI in the test with HOP-18 NSCLC is > 9.09 µM and 36.4 µM; in the test on KM20L2 colon, > 9.09 µM and 17.4 µM; with XF 498 CNS, > 9.09 µM and 22.9 µM.
For `COC(=O)CSc1ccccc1`, the TGI with SNB-78 CNS, in the test on M19-MEL melanoma, in the test with LXFL 529 NSCLC, in the test with RXF-631 renal, in the test with DMS 273 small cell lung and with HOP-18 NSCLC was above 100 µM throughout. Also, the TGI in the test with KM20L2 colon and with XF 498 CNS was above 100 µM each time.
Molecule `O=C(c1ccccn1)c1nnn2ccccc12` yielded a TGI in the test with MDA-N above 100 µM.
The same measure, in the same setting: next, `Cc1cc(Cl)ccc1NC(=O)/C(Cl)=C(/Cl)C(=O)O`: 60.9 µM.
Take `COc1c(OC(C)=O)c(OC(C)=O)cc2c1-c1ccc(OC)c(=O)cc1C(NC(C)=O)CC2` (stereo unspecified): the TGI is above 100 µM with SNB-78 CNS; above 100 µM in the test on M19-MEL melanoma; above 53 µM with LXFL 529 NSCLC; 18.2 µM in the test with RXF-631 renal; above 100 µM with HOP-18 NSCLC; 0.0795 µM in the test with KM20L2 colon. This molecule also gave a TGI in the test on XF 498 CNS of 16.2 µM.
In the case of `CN(C)c1ccccc1CC(c1c[nH]c2ccccc12)c1c[nH]c2ccccc12`, the TGI was 32.5 µM in the test with SNB-78 CNS; 29.1 µM with M19-MEL melanoma; 27.9 µM with DMS 273 small cell lung; 22.6 µM with KM20L2 colon; 31.5 µM in the test with XF 498 CNS.
